{"source": "patent US20120021992A1", "about": "“METHODS FOR IMPROVING NEUROLOGICAL OUTCOME AFTER NEURAL INJURY AND NEURODEGENERATIVE DISEASE” (Henry Ford Health System, priority 2009, published 2012)", "key": {"[1]": {"tested_on": "stroke (middle cerebral artery occlusion (MCAo)) rats", "assay": "Embolic middle cerebral artery occlusion (MCAo) stroke model", "type": "in vivo, rat", "protocol": "(§1) Effectiveness of treatment with thymosin β4 was tested in stroke (middle cerebral artery occlusion (MCAo)) rats and in experimental autoimmune encephalomyelitis (EAE) mice (a well-established in vivo model for multiple sclerosis). Both the stroke rats and the EAE mice were treated with 6 mg/kg thymosin β4 intraperitoneally (IP) in a volume of 0.3 mL twenty-four hours after stroke or after the day of immunization in the EAE model and then every three days (6 mg/kg IP) for four additional doses. An equal volume of saline was administered (IP) to a group of both stroke rats and EAE mice as a control. Bromodeoxyuridine (BrdU; 100 mg/kg) was administered (IP) daily for seven days, initiated 24 hours after MCAo to label proliferating cells. Behavioral tests (adhesive removable test and NSS (Neurological Severity Score)) were performed immediately before treatment and at days 1, 7, 14, 21, 28, 35, 42, 49, and 56 days after MCAo and up to 30 days in the EAE mouse model. All rats were sacrificed 56 days after MCAo; EAE mice were sacrificed at 30 days."}, "[2]": {"tested_on": "experimental autoimmune encephalomyelitis (EAE) mice", "assay": "Experimental autoimmune encephalomyelitis (EAE) model of multiple sclerosis", "type": "in vivo, mouse", "conditions": "6 mg/kg IP, up to 30 days, versus control, p<0.01 (FIG. 9)", "protocol": "as §1"}, "[3]": {"conditions": "embolic stroke rats, 6 mg/kg IP, versus saline control"}}, "data": [{"substance": "thymosin β4", "values": [{"measurement": "number of myelinated axons", "setting": "[1]; after MCAo, Bielschowsky and Luxol Fast Blue staining, p<0.05 (FIG. 4)", "result": "increased"}, {"measurement": "cellular proliferation (BrdU expression, number of BrdU immunoreactive cells)", "setting": "[1]; after MCAo, p<0.05 (FIG. 8)", "result": "also increased"}, {"measurement": "number of oligodendrocyte progenitors and matured oligodendrocytes", "setting": "[1]; after MCAo, p<0.05 (FIGS. 5-7)", "result": "increased"}, {"measurement": "functional outcome by behavioral tests (adhesive removal test, NSS)", "setting": "[1]; beginning at 21 days after stroke onset, 6 mg/kg IP, p<0.05 (FIG. 1-2)", "result": "Significant functional improvement"}, {"measurement": "relative increase in BrdU expression in the striatum or myelinated region of the rat brain", "setting": "[1]; embolic stroke rats, 6 mg/kg IP from 24 h after MCAo, then every three days for four additional doses, versus saline control", "result": 42, "unit": "%"}, {"measurement": "increase in CNP, a marker of mature oligodendrocytes", "setting": "[1]; [3]", "result": 11, "unit": "%"}, {"measurement": "increase in NG-2, a marker of immature oligodendrocytes", "setting": "[1]; [3]", "result": 47, "unit": "%"}, {"measurement": "functional neurological score", "setting": "[2]", "result": "robust improvement"}]}]}
